Assay results taken from patent EP2805705B1, “Packaging with one or more administration units comprising a sodium salt of (R)-3-[6-amino-pyridin-3-yl]-2-(1-cyclohexyl-1 H-imidazol-4-yl)-propionic acid” (IP Gesellschaft für Management mbH, priority 2013, dated 2014).

Tests used:
Type in all cases: physicochemical
[1] = Dynamic vapor sorption (DVS), DVS-1 instrument, two cycles at 25 °C; settings: for weight increase in the sorption step: 25 °C
[2] = Determination of solubility in a mixture of acetone and water (4:1, by volume); settings: acetone and water (4:1, by volume)
Protocol: Determination of solubility: For the determination of the solubility in a mixture of acetone and water (4:1, by volume), samples of 0.5 mg to 50 mg of the test substances were suspended in a defined amount of the solvent (800 mg to 1200 mg) in screw cap vials with a magnetic stirring bar, which were placed in a temperature-controlled multiple stirring device equipped for transmission measurement (Avantium Crystal 16). With stirring at 700 rpm, the vials were cooled from room temperature to 0 °C and then heated to 60 °C with a heating rate of 3 °C/h, kept at 60 °C for 2 h and cooled again to 0 °C with a cooling rate of 3 °C/h. By means of transmission measurement it was determined whether the sample was dissolved (100 % transmission), or crystals were present. For polymorph 1 ({drug5b}), polymorph 2 ({drug5c}), hydrate 1 ({drug5e}) and hydrate 2 ({drug5f}) of compound (V) the following solubilities in a mixture of acetone and water (4:1, by volume) were determined.

[3] = Solubility in water (statement, no method given); settings: result in words
[4] = Maturation experiments (slurry conversion), relative stability; settings: among polymorphs 1, 2 and hydrate 1, suspensions kept five days at 20 °C, then dried at 40°C and <100 mbar
Protocol: Maturation experiments: By maturation experiments (slurry conversion) at 20 °C the relative stability of polymorphs 1 ({drug5b}) and 2 ({drug5c}) and hydrate 1 ({drug5e}) was investigated. A polymorph mixture of 81 mg (Mixture of Polymorph 1 ({drug5b}) and Polymorph 2 ({drug5c})), 83 mg of Polymorph 1 ({drug5b}) and 60 mg of hydrate 1 ({drug5e}) was prepared. The mixture was subjected to XRPD analysis to confirm the presence of all three polymorphs and then distributed into five capillaries. These samples were kept in suspension at 20°C for five days. After X-ray powder diffraction measurement of the suspensions these were dried over night at 40°C and <100mbar and again subjected to X-ray diffraction. Maturation experiments (a) to (e) were performed under the specified conditions, starting with the polymorph mixture described above. (a) The polymorph mixture was suspended in water. After stirring the suspension for five days at 20 °C, the suspension was analyzed via XRPD and a mixture of polymorph 1 ({drug5b}) and hydrate 1 ({drug5e}) was proven. […] (b) The polymorph mixture was suspended in water/methanol 1:1 (vol.: vol.). […] (c) The polymorph mixture was suspended in 2-propanol. […] (d) The polymorph mixture was suspended in acetone. […] (e) The polymorph mixture was suspended in ethylacetate. […]

[5] = Chiral stability on storage for 14 days (chiral HPLC)
Protocol: Example 4: Chiral stability: Representative samples of the crystalline salt of (R)-3-(6-amino-pyridin-3-yl)-2-(1-cyclohexyl-1 H-imidazol-4-yl)-propionic acid ethyl ester with naphthalene-1,5disulfonic acid were prepared as described in example 1 amd stored for 14 days under described conditions (A), (B), (C) and (D): Results:
The enantiomeric purity of the sample measured at the beginning of measurement was 99.0%. Under the storage conditions 50°C (A) and 50°C and 80% relative humidity (B) a small increase of 0.2% of the (S)-enantiomers was observed. Under storage conditions 80°C (C), no change can be observed. Under the storage condition 80°C and 80% relative humidity (D) an increase of 2.7% of (S)-enantiomers was are observed. The measurements were made as described in Example 1 by chromatography on a chiral phase, Chiral HPLC (Chiralcel OD-H/84 (250x4.6 mm), heptane: isopropanol: acetonitrile 15:1: 0.5 +0.1% diethylamine (DEA), 30°C, 1 ml / min): Rt = 27.01 min.

[6] = Physical stability on storage for 14 days (XRPD, thermogravimetry); settings: stored 14 days under conditions (A), (B), (C) and (D)
Protocol: Example 3: Physical stability: Representative samples of the crystalline salt of (R)-3-(6-amino-pyridin-3-yl)-2-(1-cyclohexyl-1 H-imidazol-4-yl)-propionic acid ethyl ester with naphthalene-1,5-disulfonic acid as in Example 1 are produced and are stored for 14 days under the conditions (A), (B), (C) and (D): (A) 50°C; (B) 50°C and 80% relative humidity; (C) 80°C; (D) 80°C and 80% relative humidity.

Q: Which “weight increase in the sorption step” value ([1]; Relative humidity 40 %, first cycle) does the source give for `CNc1nccc(-c2cc3cc(C(=O)N[C@@H](CN(c4ccccc4)c4ncccn4)C(N)=O)ccc3[nH]2)n1` [Polymorph 1, 2-(2-methylamino-pyrimidin-4-yl)-1 H-indole-5-carboxylic acid [(S)-1-carbamoyl-2-(phenyl-pyrimidin-2-yl-amino)-ethyl]-amide] here?
A: Its value is 0.5 % / 0.5%.

Q: What about the “weight increase in the sorption step” value ([1]; Relative humidity 40 %, second cycle) of the same compound?
A: The value was 0.5 % / 0.5%.

Q: And the “weight increase in the sorption step” value ([1]; Relative humidity 60 %, first cycle)?
A: Its value is 0.6 % / 0.6%.

Q: What about the “weight increase in the sorption step” value ([1]; Relative humidity 60 %, second cycle) of the same compound?
A: The value was 0.6 % / 0.6%.

Q: And the “weight increase in the sorption step” value ([1]; Relative humidity 80 %, first cycle)?
A: Its value is 0.9 % / 0.9%.

Q: What about the “weight increase in the sorption step” value ([1]; Relative humidity 80 %, second cycle) of the same compound?
A: Its value is 0.9 % / 0.9%.

Q: And the “weight increase in the sorption step” value ([1]; Relative humidity 95 %, first cycle)?
A: The value was 1.3%.

Q: What about the “weight increase in the sorption step” value ([1]; Relative humidity 95 %, second cycle) of the same compound?
A: Its value is 1.4%.

Q: And the “water uptake (hygroscopicity)” value ([1]; at a high relative humidity of 80 %)?
A: The value was “about 0.9%”.

Q: And the “Solubility [g in 100 g of solvent]” value ([2]; Temperature 36.9 °C)?
A: Its value is 0.43 g in 100 g of solvent.

Q: What about the “Solubility [g in 100 g of solvent]” value ([2]; Temperature 44.7 °C) of the same compound?
A: Its value is 0.50 g in 100 g of solvent.

Q: And the “Solubility [g in 100 g of solvent]” value ([2]; Temperature 60.0 °C)?
A: Its value is 0.85 g in 100 g of solvent.

Q: What about the solubility in water [3] of the same compound?
A: Its solubility in water is “low solubility in water”.

Q: What about the relative thermodynamic stability [4] of the same compound?
A: Its relative thermodynamic stability is “thermodynamically most stable polymorph”.

Q: And the relative thermodynamic stability ([4]; listed as polymorph 1)?
A: Its relative thermodynamic stability is “thermodynamically most stable”.

Q: With `CCOC(=O)[C@H](Cc1ccc(N)nc1)c1cn(C2CCCCC2)cn1.O=S(=O)(O)c1cccc2c(S(=O)(=O)O)cccc12` [naphthalene-1,5-disulfonic acid salt of (R)-3-(6-amino-pyridin-3-yl)-2-(1-cyclohexyl-1 H-imidazol-4-yl)-propionic acid-ethylester] as the compound, how does the enantiomeric purity ([5]; at the beginning of measurement) read?
A: The enantiomeric purity was 99.0%.

Q: What about the “increase of (S)-enantiomers” value ([5]; storage condition 80°C and 80% relative humidity (D), 14 days) of the same compound?
A: Its value is 2.7%.

Q: And the enantiomeric purity ([5]; storage condition (A) 50°C, 14 days)?
A: Its enantiomeric purity is 98.8%.

Q: What about the enantiomeric purity ([5]; storage condition (B) 50°C and 80% relative humidity, 14 days) of the same compound?
A: The enantiomeric purity was 98.8%.

Q: And the enantiomeric purity ([5]; storage condition (C) 80°C, 14 days)?
A: The enantiomeric purity was 99.0%.

Q: And the enantiomeric purity ([5]; storage condition (D) 80°C and 80% relative humidity, 14 days)?
A: The enantiomeric purity was 96.3%.

Q: What about the “increase of the (S)-enantiomers” value ([5]; storage conditions 50°C (A) and 50°C and 80% relative humidity (B), 14 days) of the same compound?
A: The value was 0.2%.

Q: What about the “change of enantiomeric purity” value ([5]; storage conditions 80°C (C), 14 days) of the same compound?
A: Its value is “no change”.

Q: And the “XRPD measurements at the beginning and after 14 days” value [6]?
A: The value was “close to each other”.
